Literature values in US6641839B1, “Pharmaceutical formulations for preventing drug tolerance” (Athpharma Limited, priority 1987, dated 2003).

Details: nitrate therapy, widely believed critical level

Row | Compound | minimum critical plasma concentration for therapeutic effect
1 | O=[N+]([O-])O[C@@H]1CO[C@H]2[C@@H]1OC[C@@H]2O [IS-5-MN, isosorbide-5-mononitrate] | approximately 100 ng/ml
2 | O=[N+]([O-])O[C@H]1CO[C@H]2[C@@H]1OC[C@H]2O [IS-2-MN, isosorbide-2-mononitrate] | approximately 20 ng/ml
